Series [1] is described as follows: Lipophilicity, log D at pH 7.4. Format: physicochemical. Conditions: buffer.
Series [2] is described as follows: (§1) Metabolic stability in human liver microsomes assessed as clearance measured per mg of protein. The format is ADME, Microsome. Conditions: liver microsomes. Background: Liver microsomes are a subcellular fraction often used to study metabolism.
Series [3] can be described thus: Apparent permeability from apical to basolateral side of human Caco-2 cells. Format: ADME, cell-based. Conditions: read-out: permeability.
A short description of series [4]: Apparent permeability from basolateral to apical side of human Caco-2 cells. Particulars: read-out: permeability. The format is ADME, cell-based.
Series [5] can be described thus: Half life in iv dosed Sprague-Dawley rat. The format is ADME, organism-based. Conditions: in vivo.
The nature of series [6]: Volume of distribution in iv dosed Sprague-Dawley rat. The format is ADME, organism-based. Particulars: in vivo.
A short description of series [7]: Oral bioavailability in Sprague-Dawley rat. Format: ADME, organism-based. Particulars: in vivo.
A short description of series [8]: Clearance in iv dosed Sprague-Dawley rat. The format is ADME, organism-based. Conditions: in vivo.
In series [9] the test system is Human immunodeficiency virus 1. Put plainly: Antiviral activity against HIV1 BAL assessed as inhibition of viral replication. Conditions: Human immunodeficiency virus 1, BAL. Format: functional.
A further series deals with Liver microsomes. Described as §1. Format: ADME, Microsome. Particulars: microsomes.

On to `Cc1nc(C(C)C)n([C@@H]2C[C@H]3CC[C@@H](C2)N3CC[C@H](NC(=O)C2CCC(F)(F)CC2)c2ccccc2)n1`, for which the logD in series [1] (read-out: logD) amounted to 2.7. Besides, the microsomal CLint in series [2] was 6 µL/min/mg. Also, in series [3], the Papp A→B is 11 ×10⁻⁶ cm/s. Moreover, in [4], the Papp B→A stood at 26 ×10⁻⁶ cm/s.

In series [5], `Cc1nnc(C(C)C)n1C1CCN([C@H](C)C[C@H](NC(=O)C2CC(F)(F)C2)c2ccccc2)CC1` gave a half-life of 1.3 h. This molecule also yielded a Vd in series [6] of 10 L/kg. Besides, the logD in series [1] (read-out: logD) stood at 2.2. In [7], this molecule showed a bioavailability of 6%. In addition, the clearance in [8] was 92 mL/min/kg. For the same molecule, in [2], the microsomal CLint came out at 12 µL/min/mg. The 90% effect concentration (IC90) in series [9] came out at 1.8 nM.

For `Cc1nnc(C(C)C)n1C1CCN([C@@H](C)C[C@H](NC(=O)C2CCC(F)(F)CC2)c2ccccc2)CC1`, the log distribution coefficient (logD) in series [1] (read-out: logD) is 2.2. Besides, the microsomal CLint in series [2] was < 7 µL/min/mg.

As for `Cc1nnc(C(C)C)n1C1CCN(C(C)C[C@H](NC(=O)C2CC2)c2ccccc2)CC1` (mixture of isomers), in series [2], the microsomal CLint was < 8 µL/min/mg.

As to `CC(=O)N[C@@H](CC(C)N1CCC(n2c(C)nnc2C(C)C)CC1)c1ccccc1` (mixture of isomers), in [2], the microsomal CLint was < 8 µL/min/mg.

With `Cc1nnc(C(C)C)n1C1CCN(C(C)C[C@H](NC(=O)CC(F)(F)F)c2ccccc2)CC1` (mixture of isomers), in series [2], the microsomal CLint was determined as 11.4 µL/min/mg.

`Cc1nnc(C(C)C)n1C1CCN(C(C)C[C@H](NC(=O)COCC(F)(F)F)c2ccccc2)CC1` (mixture of isomers): the intrinsic metabolic clearance (microsomal CLint) in series [2] stood at 61.6 µL/min/mg.

With `Cc1nnc(C(C)C)n1C1CCN(C(C)C[C@H](NC(=O)C2CCCCC2)c2ccccc2)CC1` (mixture of isomers), the pH-dependent lipophilicity (logD) in series [1] (read-out: logD) was 2.5. Moreover, the microsomal CLint in series [2] is 139 µL/min/mg.

Take `Cc1nnc(C(C)C)n1C1CCN(C(C)C[C@H](NC(=O)C(C)C)c2ccccc2)CC1` (mixture of isomers): in series [2], the microsomal CLint was < 8 µL/min/mg.

With `Cc1nnc(C(C)C)n1C1CCN(C(C)C[C@H](NC(=O)N2CCOCC2)c2ccccc2)CC1` (mixture of isomers), in series [2], the intrinsic clearance (microsomal CLint) was < 8 µL/min/mg.

Consider `Cc1nnc(C(C)C)n1C1CCN(C(C)C[C@H](NC(=O)C2CCS(=O)(=O)CC2)c2ccccc2)CC1` (mixture of isomers), for which, in [1] (read-out: logD), the logD is 0.5.

For `CC(=O)N1CCC(C(=O)N[C@@H](CC(C)N2CCC(n3c(C)nnc3C(C)C)CC2)c2ccccc2)CC1` (mixture of isomers), the microsomal CLint in series [2] is < 8 µL/min/mg.

Consider `COC(=O)N[C@@H](CC(C)N1CCC(n2c(C)nnc2C(C)C)CC1)c1ccccc1` (mixture of isomers), for which the logD in series [1] (read-out: logD) turned out to be 1.5. Moreover, the microsomal CLint in series [2] is < 7 µL/min/mg.

On to `Cc1nnc(C(C)C)n1C1CCN(C(C)C[C@H](NC(=O)C2CCOCC2)c2ccccc2)CC1` (mixture of isomers), for which the microsomal CLint in series [2] was found to be 10.8 µL/min/mg.

Turning to `Cc1nnc(C(C)C)n1C1CCN(C(C)C[C@H](NC(=O)CC2CC2)c2ccccc2)CC1` (mixture of isomers), the logD in [1] (read-out: logD) was 1.9.

`Cc1nnc(C(C)C)n1C1CCN(C(C)C[C@H](NC(=O)C2CC(F)(F)C2)c2ccccc2)CC1` (mixture of isomers; form 1) displayed a logD in series [1] of 2. For the same molecule, in the series on Liver microsomes, the CL is < 7 µL/min/mg.

On to `Cc1nnc(C(C)C)n1C1CCN(C(C)C[C@H](NC(=O)C2CCC(F)(F)CC2)c2ccccc2)CC1` (mixture of isomers; form 1), for which the log distribution coefficient (logD) in series [1] (read-out: logD) is 2. Further, in the series with Liver microsomes, the CL was found to be 19 µL/min/mg.

For `Cc1nnc(C(C)C)n1C1CCN(C(C)C[C@H](NC(=O)C2CCC(F)(F)CC2)c2ccccc2)CC1.Cl` (mixture of isomers; form 2), the pH-dependent lipophilicity (logD) in series [1] was found to be 2. For the same molecule, in [2], the intrinsic metabolic clearance (microsomal CLint) came out at 16 µL/min/mg.

`Cc1nnc(C(C)C)n1C1CCN(C(C)C[C@H](NC(=O)C2CC(F)(F)C2)c2ccccc2)CC1` (mixture of isomers; form 2): the logD in series [1] (read-out: logD) is 1.9. In addition, the intrinsic clearance (microsomal CLint) in [2] was < 7 µL/min/mg.

As for `Cc1nnc(C(C)C)n1[C@@H]1C[C@H]2CC[C@@H](C1)N2CC[C@H](NC(=O)C1CCC(F)(F)CC1)c1ccccc1` [MARAVIROC], in series [5], the half-life is 0.9 h. The molecule also yielded a Vd in [6] of 6.5 L/kg. Besides, the log distribution coefficient (logD) in [1] (read-out: logD) stood at 1.9. In series [8], this molecule had a clearance of 74 mL/min/kg. In addition, the microsomal CLint in series [2] stood at 20 µL/min/mg. Also, in [3], the Papp A→B was found to be 1 ×10⁻⁶ cm/s. For the same molecule, in series [4], the Papp B→A worked out at 10 ×10⁻⁶ cm/s.

For `Cc1nnc(C(C)C)n1[C@H]1C[C@H]2CC[C@@H](C1)N2CC[C@H](NC(=O)C1CCC(F)(F)CC1)c1ccccc1` [MARAVIROC], the IC90 in series [9] is 2.8 nM.

As a reminder, the logD is lipophilicity at a set pH, counting ionised and neutral species. One may read the microsomal CLint as the rate of metabolic loss divided by the concentration. Usually half-life stands for the time needed for the level to fall by half in the phase considered. A high value points to slow loss. Usually Vd stands for a proportionality between amount in the body and measured concentration, not a real space. In general, bioavailability refers to the share of a dose that reaches the circulation, judged against a reference dose that is usually intravenous. What is called clearance is a measure of how efficiently the substance is removed, as volume per time. High values mean a high capacity for elimination, low ones a low capacity for elimination. As usually defined, the IC90 is the concentration needed for an effect of 90%.

Source of the values: ChEMBL document CHEMBL1152883, “1-Amido-1-phenyl-3-piperidinylbutanes--CCR5 antagonists for the treatment of HIV: part 2” (Bioorg Med Chem Lett, 2009).
